Source: patent US20130237570A1 (priority 2002, published 2013)
Like-named read-outs stand apart in the source and are kept apart here.

Key:
[1] = Buffer capacity determination by titration with 0.1 M HCl; type: physicochemical; details: without added buffering agent
Procedure: Method: 10.0 ml of the respective below solutions was titrated with 0.1 M HCl to pH 7.0. The amount of 0.1 M HCl needed to decrease pH from 9.0 to 8.0 was determined

[2] = Merck Index; cited from earlier work
[3] = Description: Absorption of nicotine from the oral cavity to the systemic circulation is dependent on the pH of the saliva and the pKa of nicotine, which is about 7.8. Assuming a pH of the saliva of 6.8 only about 10% of the nicotine in saliva will be in the free base form. Thus, in order to promote absorption of nicotine in a free base form, which is the form predominantly absorbed through the mucosa, the pH of the saliva must be increased. At a pH of 8.8 about 90% of the nicotine in saliva will then be in the free base form.
[4] = smoking of a cigarette; cited from earlier work

CN1CCCC1c1cccnc1 (centres unmarked) [nicotine, 3-(1-methyl-2-pyrrolidinyl)-pyridine]
buffering capacity on its own, in words [1]: too weak a buffering capacity on its own
amount of nicotine that may kill an adult [2]: Approximately forty
nicotine in saliva in the free base form ([3]; saliva pH 6.8): about 10%
nicotine in saliva in the free base form ([3]; saliva pH 8.8): about 90%
time for nicotine to reach the brain after inhalation [4]: around ten
